Where a name gives a salt, the structure may show the parent alone.
Each compound was assayed against S1P1 receptor (Homo sapiens, UniProt P21453) (assay: 35S-GTPγS binding, membranes from CHO cells expressing S1P1). Conditions: CHO cell membranes expressing S1P1.
Assay type: biochemical
How it was run: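 Membranes (1–10 μg) from CHO cells expressing the receptor were incubated with compound in 20 mM HEPES pH 7.4, 10 mM MgCl2, 140 mM NaCl, 1.7 μM GDP, saponin and 0.2% BSA. [35S]GTPγS (added at 1.5 nM) was then bound for 60 min at 30 °C. Membrane-bound radioactivity, averaged over triplicates, is expressed relative to S1P activation (n=2).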

S1P1 receptor, sequence (P21453 whole entry): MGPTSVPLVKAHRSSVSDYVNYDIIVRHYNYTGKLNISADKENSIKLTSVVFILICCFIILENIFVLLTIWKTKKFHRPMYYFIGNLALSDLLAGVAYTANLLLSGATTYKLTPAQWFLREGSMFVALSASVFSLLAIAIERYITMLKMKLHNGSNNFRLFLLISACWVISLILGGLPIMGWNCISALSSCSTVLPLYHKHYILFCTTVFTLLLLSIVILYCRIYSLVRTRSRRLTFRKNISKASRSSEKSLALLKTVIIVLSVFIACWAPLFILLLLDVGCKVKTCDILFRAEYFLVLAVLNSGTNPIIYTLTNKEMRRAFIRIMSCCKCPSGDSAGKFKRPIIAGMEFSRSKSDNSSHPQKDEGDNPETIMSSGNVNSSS

Row | Compound | EC50 [nM]
1 | Fc1ccccc1-n1nnc(-c2nc(-c3ccc(C(F)(F)F)nc3)no2)c1-c1ccncc1 [Example 120, 5-{5-[1-(2-fluorophenyl)-5-pyridin-4-yl-1H-1,2,3-triazol-4-yl]-1,2,4-oxadiazol-3-yl}-2-(trifluoromethyl)pyridine] | 754
2 | COc1ccc(F)cc1-c1noc(-c2nnn(-c3ccccc3F)c2-c2ccncc2)n1 [Example 122, 4-[4-[3-(5-fluoro-2-methoxyphenyl)-1,2,4-oxadiazol-5-yl]-1-(2-fluorophenyl)-1H-1,2,3-triazol-5-yl]pyridine] | 56
3 | COCc1c(-c2nc(-c3ccc(N)nc3)no2)nnn1-c1ccccc1F [Example 123, 5-{5-[1-(2-fluorophenyl)-5-(methoxymethyl)-1H-1,2,3-triazol-4-yl]-1,2,4-oxadiazol-3-yl}pyridin-2-amine] | 475
4 | Oc1cccc(-c2noc(-c3nnn(-c4ccccc4F)c3-c3ccncc3)n2)c1 [Example 124, 3-{5-[1-(2-fluorophenyl)-5-pyridin-4-yl-1H-1,2,3-triazol-4-yl]-1,2,4-oxadiazol-3-yl}phenol] | 23
5 | NCc1cccc(-c2noc(-c3nnn(-c4ccccc4F)c3-c3ccncc3)n2)c1 [Example 125, 1-(3-{5-[1-(2-fluorophenyl)-5-pyridin-4-yl-1H-1,2,3-triazol-4-yl]-1,2,4-oxadiazol-3-yl}phenyl)methanamine hydrochloride] | 230
6 | COc1ccc(-c2noc(-c3nnn(-c4ccccc4F)c3-c3ccncc3)n2)cn1 [Example 126, 5-{5-[1-(2-fluorophenyl)-5-pyridin-4-yl-1H-1,2,3-triazol-4-yl]-1,2,4-oxadiazol-3-yl}-2-methoxypyridine] | 226
7 | CN(CC(=O)O)Cc1ccc(-c2noc(-c3nnn(-c4ccccc4F)c3-c3ccncc3)n2)cc1 [Example 130, N-(4-{5-[1-(2-fluorophenyl)-5-pyridin-4-yl-1H-1,2,3-triazol-4-yl]-1,2,4-oxadiazol-3-yl}benzyl)-N-methylglycine] | 45
8 | CN(C)Cc1ccc(-c2noc(-c3nnn(-c4ccccc4F)c3-c3ccncc3)n2)cc1 [Example 131, 1-(4-{5-[1-(2-fluorophenyl)-5-pyridin-4-yl-1H-1,2,3-triazol-4-yl]-1,2,4-oxadiazol-3-yl}phenyl)-N,N-dimethylmethanamine] | 11
9 | OCCNCc1cccc(-c2noc(-c3nnn(-c4ccccc4F)c3-c3ccncc3)n2)c1 [Example 132, 2-[(3-{5-[1(2-fluorophenyl)-5-pyridin-4-yl-1H-1,2,3-triazol-4-yl]-1,2,4-oxadiazol-3-yl}benzyl)amino]ethanol formate] | 383
10 | CNCc1cccc(-c2noc(-c3nnn(-c4ccccc4F)c3-c3ccncc3)n2)c1 [Example 133, 1-(3-{5-[1-(2-fluorophenyl)-5-pyridin-4-yl-1H-1,2,3-triazol-4-yl]-1,2,4-oxadiazol-3-yl}phenyl)-N-methylmethanamine formate] | 646
11 | OC1CCN(Cc2cccc(-c3noc(-c4nnn(-c5ccccc5F)c4-c4ccncc4)n3)c2)C1 (stereo not drawn) [Example 134, 1-(3-{5-[1-(2-fluorophenyl)-5-pyridin-4-yl-1H-1,2,3-triazol-4-yl]-1,2,4-oxadiazol-3-yl}benzyl)pyrrolidin-3-ol] | 758
12 | OC1CN(Cc2ccc(-c3noc(-c4nnn(-c5ccccc5F)c4-c4ccncc4)n3)cc2)C1 [Example 135, 1-(4-{5-[1-(2-fluorophenyl)-5-pyridin-4-yl-1H-1,2,3-triazol-4-yl]-1,2,4-oxadiazol-3-yl}benzyl)azetidin-3-ol] | 18
13 | OCCNCc1ccc(-c2noc(-c3nnn(-c4ccccc4F)c3-c3ccncc3)n2)cc1 [Example 136, 2-[(4-{5-[1-(2-fluorophenyl)-5-pyridin-4-yl-1H-1,2,3-triazol-4-yl]-1,2,4-oxadiazol-3-yl}benzyl)amino]ethanol] | 31
14 | CC(=O)NC1CCN(Cc2ccc(-c3noc(-c4nnn(-c5ccccc5F)c4-c4ccncc4)n3)cc2)CC1 [Example 137, N-[1-(4-{5-[1-(2-fluorophenyl)-5-pyridin-4-yl-1H-1,2,3-triazol-4-yl]-1,2,4-oxadiazol-3-yl}benzyl)piperidin-4-yl]acetamide] | 223
15 | Fc1ccccc1-n1nnc(-c2nc(-c3ccc(CN4CCC4)cc3)no2)c1-c1ccncc1 [Example 138, 4-[4-{3-[4-(azetidin-1-ylmethyl)phenyl]-1,2,4-oxadiazol-5-yl}-1-(2-fluorophenyl)-1H-1,2,3-triazol-5-yl]pyridine] | 21
16 | OCC1CCN(Cc2ccc(-c3noc(-c4nnn(-c5ccccc5F)c4-c4ccncc4)n3)cc2)CC1 [Example 139, [1-(4-{5-[1(2-fluorophenyl)-5-pyridin-4-yl-1H-1,2,3-triazol-4-yl]-1,2,4-oxadiazol-3-yl}benzyl)piperidin-4-yl]methanol] | 118
17 | OCC1CCCN(Cc2ccc(-c3noc(-c4nnn(-c5ccccc5F)c4-c4ccncc4)n3)cc2)C1 (stereo not drawn) [Example 140, [1-(4-{5-[1-(2-fluorophenyl)-5-pyridin-4-yl-1H-1,2,3-triazol-4-yl]-1,2,4-oxadiazol-3-yl}benzyl)piperidin-3-yl]methanol] | 530
18 | OC1CCN(Cc2ccc(-c3noc(-c4nnn(-c5ccccc5F)c4-c4ccncc4)n3)cc2)CC1 [Example 141, 1-(4-{5-[1-(2-fluorophenyl)-5-pyridin-4-yl-1H-1,2,3-triazol-4-yl]-1,2,4-oxadiazol-3-yl}benzyl)piperidin-4-ol] | 74
19 | OCC1CN(Cc2ccc(-c3noc(-c4nnn(-c5ccccc5F)c4-c4ccncc4)n3)cc2)CCO1 (stereo not drawn) [Example 143, [4-(4-{5-[1-(2-fluorophenyl)-5-pyridin-4-yl-1H-1,2,3-triazol-4-yl]-1,2,4-oxadiazol-3-yl}benzyl)morpholin-2-yl]methanol] | 118
20 | CN(CCO)Cc1ccc(-c2noc(-c3nnn(-c4ccccc4F)c3-c3ccncc3)n2)cc1 [Example 144, 2-[(4-{5-[1-(2-fluorophenyl)-5-pyridin-4-yl-1H-1,2,3-triazol-4-yl]-1,2,4-oxadiazol-3-yl}benzyl)(methyl)amino]ethanol] | 108
21 | CC(=O)Nc1ccc(-c2noc(-c3nnn(-c4ccccc4F)c3-c3ccncc3)n2)cn1 [Example 145, N-(5-{5-[1-(2-fluorophenyl)-5-pyridin-4-yl-1H-1,2,3-triazol-4-yl]-1,2,4-oxadiazol-3-yl}pyridin-2-yl)acetamide] | 230
22 | CS(=O)(=O)NC1CCN(Cc2ccc(-c3noc(-c4nnn(-c5ccccc5F)c4-c4ccncc4)n3)cc2)CC1 [Example 146, N-[1-(4-{5-[1-(2-fluorophenyl)-5-pyridin-4-yl-1H-1,2,3-triazol-4-yl]-1,2,4-oxadiazol-3-yl}benzyl)piperidin-4-yl]methanesulfonamide] | 360

Now from value to compound:

Row | EC50 [nM] | Compound
23 | 577 | COCCNCc1cccc(-c2noc(-c3nnn(-c4ccccc4F)c3-c3ccncc3)n2)c1 [Example 147, N-(3-{5-[1-(2-fluorophenyl)-5-pyridin-4-yl-1H-1,2,3-triazol-4-yl]-1,2,4-oxadiazol-3-yl}benzyl)-2-methoxyethanamine]
24 | 508 | Fc1ccccc1-n1nnc(-c2nc(-c3cccc(CN4CCC4)c3)no2)c1-c1ccncc1 [Example 148, 4-[4-{3-[3-(azetidin-1-ylmethyl)phenyl]-1,2,4-oxadiazol-5-yl}-1-(2-fluorophenyl)-1H-1,2,3-triazol-5-yl]pyridine formate]
25 | 39 | Fc1ccc(Br)c(-c2noc(-c3nnn(-c4ccccc4F)c3-c3ccncc3)n2)c1 [Example 149, 4-[4-[3-(2-bromo-5-fluorophenyl)-1,2,4-oxadiazol-5-yl]-1-(2-fluorophenyl)-1H-1,2,3-triazol-5-yl]pyridine]
26 | 43 | OCCc1ccc(-c2noc(-c3nnn(-c4ccccc4F)c3-c3ccncc3)n2)cc1 [Example 150, 2-(4-{5-[1(2-fluorophenyl)-5-pyridin-4-yl-1H-1,2,3-triazol-4-yl]-1,2,4-oxadiazol-3-yl}phenyl)ethanol]
27 | 340 | Fc1ccccc1-n1nnc(-c2nc(-c3cccc(C(F)(F)F)c3)no2)c1CN1CCOCC1 [Example 151, 4-[(1-(2-fluorophenyl)-4-{3-[3-(trifluoromethyl)phenyl]-1,2,4-oxadiazol-5-yl}-1H-1,2,3-triazol-5-yl)methyl]morpholine]
28 | 78 | Nc1cc(-c2noc(-c3nnn(-c4ccccc4F)c3-c3ccncc3)n2)ccn1 [Example 152, 4-{5-[1-(2-fluorophenyl)-5-pyridin-4-yl-1H-1,2,3-triazol-4-yl]-1,2,4-oxadiazol-3-yl}pyridin-2-amine]
29 | 90 | CC(=O)N1CCc2cc(-c3noc(-c4nnn(-c5ccccc5F)c4-c4ccncc4)n3)ccc21 [Example 153, 1-acetyl-5-{5-[1-(2-fluorophenyl)-5-pyridin-4-yl-1H-1,2,3-triazol-4-yl]-1,2,4-oxadiazol-3-yl}indoline]
30 | 918 | CCN1CCc2ccc(-c3noc(-c4nnn(-c5ccccc5F)c4-c4ccncc4)n3)cc2C1 [Example 154, 2-ethyl-7-{5-[1-(2-fluorophenyl)-5-pyridin-4-yl-1H-1,2,3-triazol-4-yl]-1,2,4-oxadiazol-3-yl}-1,2,3,4-tetrahydroisoquinoline]
31 | 251 | Fc1ccccc1-n1nnc(-c2nc(-c3ccc4[nH]cnc4c3)no2)c1-c1ccncc1 [Example 155, 5-{5-[1-(2-fluorophenyl)-5-pyridin-4-yl-1H-1,2,3-triazol-4-yl]-1,2,4-oxadiazol-3-yl}-1H-benzimidazole]
32 | 27 | Fc1ccccc1-n1nnc(-c2nc(-c3ccc4c(c3)CCN4)no2)c1-c1ccncc1 [Example 156, 5-{5-[1-(2-fluorophenyl)-5-pyridin-4-yl-1H-1,2,3-triazol-4-yl]-1,2,4-oxadiazol-3-yl}indoline hydrochloride]
33 | 218 | Fc1ccccc1-n1nnc(-c2nc(-c3ccc4c(c3)NCC4)no2)c1-c1ccncc1 [Example 157, 6-{5-[1-(2-fluorophenyl)-5-pyridin-4-yl-1H-1,2,3-triazol-4-yl]-1,2,4-oxadiazol-3-yl}indoline]

— patent publication US8202856B2 (Merck Serono SA, priority 2007, dated 2012)
